Tests used:
[1] = molecular target: T1, PAFR (receptor for platelet-activating factor) (Homo sapiens, UniProt P25105); test: agonist-induced superoxide release (isoluminol chemiluminescence) in human neutrophils, abolished by PAFR antagonist WEB2086; Ca2+ mobilization EC50 […]; assay type: cell-based
T1 construct: gene PTAFR

[2] = molecular target: T1, PAFR (receptor for platelet-activating factor); test: antagonism of PAF ([…])-induced superoxide release in human neutrophils; assay type: cell-based

T1 sequence (P25105 whole entry): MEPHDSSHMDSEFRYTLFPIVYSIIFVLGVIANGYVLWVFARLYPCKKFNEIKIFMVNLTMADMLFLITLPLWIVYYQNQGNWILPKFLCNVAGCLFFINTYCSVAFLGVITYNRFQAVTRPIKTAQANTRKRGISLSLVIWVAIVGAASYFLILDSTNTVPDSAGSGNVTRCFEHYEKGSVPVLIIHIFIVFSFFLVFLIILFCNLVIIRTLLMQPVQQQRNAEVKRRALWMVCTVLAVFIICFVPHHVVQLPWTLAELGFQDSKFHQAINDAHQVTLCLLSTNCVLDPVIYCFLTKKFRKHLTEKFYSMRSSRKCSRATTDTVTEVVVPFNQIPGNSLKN

CCCCCCCCCCCCCCCCOC[C@H](COP(=O)([O-])OCC[N+](C)(C)C)OC(C)=O [PAF]
EC50 [1]: ~800 nM

Cc1nnc2n1-c1sc(CCC(=O)N3CCOCC3)cc1C(c1ccccc1Cl)=NC2 [WEB2086]
antagonism of PAF (100 nM)-induced superoxide release in human neutrophils [2]: a specific PAFR antagonist (WEB2086) completely and selectively abolished the release of ROS upon PAF stimulation

Source: paper PMC3773398, “The Subcellular Localization of the Receptor for Platelet-Activating Factor in Neutrophils Affects Signaling and Activation Characteristics” (Clinical and Developmental Immunology, 2013)
